Measured values reported in the kinase profiling compilation of Christmann-Franck et al. (2016).

Legend:
Assay in all cases: radiometric filter-binding kinase assay
[1] = test system: AKT2 (human), P31751 [S474D]
AURKA (human) = AURKA (human) (UniProt O14965)
AURKB (human) = AURKB (human) (UniProt Q96GD4)
CHEK1 (human) = CHEK1 (human) (UniProt O14757)
CSNK1D (human) = CSNK1D (human) (UniProt P48730)
EEF2K (human) = EEF2K (human) (UniProt O00418)
EPHB1 (human) = EPHB1 (human) (UniProt P54762)
EPHB4 (human) = EPHB4 (human) (UniProt P54760)
FGFR1 (human) = FGFR1 (human) (UniProt P11362)
FLT1 (human) = FLT1 (human) (UniProt P17948)
GCK (human) = GCK (human) (UniProt Q12851)
GSK3B (human) = GSK3B (human) (UniProt P49841)
HIPK1 (human) = HIPK1 (human) (UniProt Q86Z02)
HIPK2 (human) = HIPK2 (human) (UniProt Q9H2X6)
IGF1R (human) = IGF1R (human) (UniProt P08069)
MAP2K2 (human) = MAP2K2 (human) (UniProt P36507)
MAP3K1 (human) = MAP3K1 (human) (UniProt Q13233)
MAP3K5 (human) = MAP3K5 (human) (UniProt Q99683)
MAP3K9 (human) = MAP3K9 (human) (UniProt P80192)
MAPK1 (human) = MAPK1 (human) (UniProt P28482)
MAPK10 (human) = MAPK10 (human) (UniProt P53779)
MAPK13 (human) = MAPK13 (human) (UniProt O15264)
MAPK9 (human) = MAPK9 (human) (UniProt P45984)
MARK4 (human) = MARK4 (human) (UniProt Q96L34)
MELK (human) = MELK (human) (UniProt Q14680)
MYLK (human) = MYLK (human) (UniProt Q15746)
[2] = test system: PAK2 (human), Q13177 [T402E]
PAK6 (human) = PAK6 (human) (UniProt Q9NQU5)
PKN2 (human) = PKN2 (human) (UniProt Q16513)
SRC (human) = SRC (human) (UniProt P12931)
[3] = target: STK11 CAB39 STRADA (human) (UniProt Q9Y376+Q7RTN6+Q15831)
SYK (human) = SYK (human) (UniProt P43405)
TAOK1 (human) = TAOK1 (human) (UniProt Q7L7X3)
TTK (human) = TTK (human) (UniProt P33981)
YES1 (human) = YES1 (human) (UniProt P07947)
PRKCZ (human) = PRKCZ (human) (UniProt Q05513); details: compound 100.0 µM

Chain of CHEK1 (human) (O14757 whole entry, looked up): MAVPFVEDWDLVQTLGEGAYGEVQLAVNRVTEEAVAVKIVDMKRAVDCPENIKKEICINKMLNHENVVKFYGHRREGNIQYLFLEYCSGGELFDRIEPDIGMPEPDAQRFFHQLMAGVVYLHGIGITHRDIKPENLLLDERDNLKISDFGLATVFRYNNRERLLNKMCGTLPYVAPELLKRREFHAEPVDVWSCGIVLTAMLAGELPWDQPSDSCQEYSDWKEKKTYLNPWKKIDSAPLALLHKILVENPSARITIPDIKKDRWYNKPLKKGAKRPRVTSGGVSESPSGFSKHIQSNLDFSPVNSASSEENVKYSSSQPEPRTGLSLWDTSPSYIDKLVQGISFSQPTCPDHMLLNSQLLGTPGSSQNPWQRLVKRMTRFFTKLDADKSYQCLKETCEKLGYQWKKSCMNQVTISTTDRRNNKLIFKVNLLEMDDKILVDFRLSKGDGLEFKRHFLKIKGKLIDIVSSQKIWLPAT
Chain of EPHB1 (human) (P54762 whole entry, looked up): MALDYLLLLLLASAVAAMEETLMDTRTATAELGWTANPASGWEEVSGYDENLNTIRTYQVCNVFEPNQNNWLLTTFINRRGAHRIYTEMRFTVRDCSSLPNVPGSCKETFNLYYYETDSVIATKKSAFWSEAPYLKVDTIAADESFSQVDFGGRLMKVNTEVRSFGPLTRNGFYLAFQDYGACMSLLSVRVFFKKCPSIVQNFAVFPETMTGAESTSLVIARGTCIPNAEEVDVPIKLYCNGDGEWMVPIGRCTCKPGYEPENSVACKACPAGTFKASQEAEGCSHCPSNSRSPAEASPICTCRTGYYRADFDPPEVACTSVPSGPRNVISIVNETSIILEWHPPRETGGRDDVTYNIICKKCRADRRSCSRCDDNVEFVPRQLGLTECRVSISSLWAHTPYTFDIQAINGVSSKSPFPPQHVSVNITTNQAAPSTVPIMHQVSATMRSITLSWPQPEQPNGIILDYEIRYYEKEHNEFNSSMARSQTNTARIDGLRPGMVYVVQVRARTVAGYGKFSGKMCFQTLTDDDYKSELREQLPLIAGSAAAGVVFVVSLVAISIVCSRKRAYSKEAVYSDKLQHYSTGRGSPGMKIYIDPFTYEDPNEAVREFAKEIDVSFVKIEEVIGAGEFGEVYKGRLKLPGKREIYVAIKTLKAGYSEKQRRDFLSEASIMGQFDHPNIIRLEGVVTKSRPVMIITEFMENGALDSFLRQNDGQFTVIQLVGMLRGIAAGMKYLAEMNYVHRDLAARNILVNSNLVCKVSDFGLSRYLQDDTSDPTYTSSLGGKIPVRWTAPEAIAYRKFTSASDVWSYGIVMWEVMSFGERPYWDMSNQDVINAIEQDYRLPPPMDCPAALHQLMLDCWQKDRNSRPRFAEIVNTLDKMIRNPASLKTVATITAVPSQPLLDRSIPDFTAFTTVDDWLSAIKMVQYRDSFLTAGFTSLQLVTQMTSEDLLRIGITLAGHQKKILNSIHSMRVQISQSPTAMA
Chain of SRC (human) (P12931 whole entry, looked up): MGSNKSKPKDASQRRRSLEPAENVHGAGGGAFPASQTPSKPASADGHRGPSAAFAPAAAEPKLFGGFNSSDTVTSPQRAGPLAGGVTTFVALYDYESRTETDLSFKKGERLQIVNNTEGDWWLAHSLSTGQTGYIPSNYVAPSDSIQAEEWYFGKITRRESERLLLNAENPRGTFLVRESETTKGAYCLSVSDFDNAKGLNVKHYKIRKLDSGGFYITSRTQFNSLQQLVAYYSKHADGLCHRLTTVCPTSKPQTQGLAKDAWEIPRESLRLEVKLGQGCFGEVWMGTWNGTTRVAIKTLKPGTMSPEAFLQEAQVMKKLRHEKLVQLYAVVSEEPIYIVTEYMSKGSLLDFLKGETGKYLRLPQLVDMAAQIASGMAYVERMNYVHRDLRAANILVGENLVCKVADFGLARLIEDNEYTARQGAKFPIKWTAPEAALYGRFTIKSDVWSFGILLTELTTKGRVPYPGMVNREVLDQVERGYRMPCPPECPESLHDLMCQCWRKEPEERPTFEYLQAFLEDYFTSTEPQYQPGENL
Chain of MAP3K9 (human) (P80192 whole entry, looked up): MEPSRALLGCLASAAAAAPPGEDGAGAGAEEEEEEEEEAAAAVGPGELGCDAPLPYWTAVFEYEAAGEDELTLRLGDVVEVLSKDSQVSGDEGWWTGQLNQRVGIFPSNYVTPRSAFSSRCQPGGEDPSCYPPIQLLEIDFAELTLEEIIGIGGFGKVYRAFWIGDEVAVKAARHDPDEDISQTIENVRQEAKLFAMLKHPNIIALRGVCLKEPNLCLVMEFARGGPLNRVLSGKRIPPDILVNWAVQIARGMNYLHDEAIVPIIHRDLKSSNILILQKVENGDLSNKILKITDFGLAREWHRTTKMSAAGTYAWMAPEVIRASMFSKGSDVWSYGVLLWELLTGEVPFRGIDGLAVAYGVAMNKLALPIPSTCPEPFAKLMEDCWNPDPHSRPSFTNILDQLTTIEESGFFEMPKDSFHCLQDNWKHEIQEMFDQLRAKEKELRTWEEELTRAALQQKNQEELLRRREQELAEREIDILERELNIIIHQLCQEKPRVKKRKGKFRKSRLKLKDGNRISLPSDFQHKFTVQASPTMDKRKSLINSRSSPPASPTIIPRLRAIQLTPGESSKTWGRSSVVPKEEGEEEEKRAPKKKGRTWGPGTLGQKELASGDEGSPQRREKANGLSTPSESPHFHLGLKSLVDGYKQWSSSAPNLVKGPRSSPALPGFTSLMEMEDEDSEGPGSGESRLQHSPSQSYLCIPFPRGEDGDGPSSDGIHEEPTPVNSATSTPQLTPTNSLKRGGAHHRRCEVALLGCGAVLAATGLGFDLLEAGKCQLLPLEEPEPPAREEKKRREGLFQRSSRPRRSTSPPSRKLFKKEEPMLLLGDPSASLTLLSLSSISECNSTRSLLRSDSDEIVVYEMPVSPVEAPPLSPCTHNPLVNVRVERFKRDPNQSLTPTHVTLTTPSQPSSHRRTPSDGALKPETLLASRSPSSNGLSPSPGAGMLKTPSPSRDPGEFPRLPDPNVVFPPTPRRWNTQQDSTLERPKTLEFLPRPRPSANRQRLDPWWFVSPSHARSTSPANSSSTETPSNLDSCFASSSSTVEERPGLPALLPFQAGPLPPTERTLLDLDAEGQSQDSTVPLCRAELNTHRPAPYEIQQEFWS
Chain of MAPK10 (human) (P53779 whole entry, looked up): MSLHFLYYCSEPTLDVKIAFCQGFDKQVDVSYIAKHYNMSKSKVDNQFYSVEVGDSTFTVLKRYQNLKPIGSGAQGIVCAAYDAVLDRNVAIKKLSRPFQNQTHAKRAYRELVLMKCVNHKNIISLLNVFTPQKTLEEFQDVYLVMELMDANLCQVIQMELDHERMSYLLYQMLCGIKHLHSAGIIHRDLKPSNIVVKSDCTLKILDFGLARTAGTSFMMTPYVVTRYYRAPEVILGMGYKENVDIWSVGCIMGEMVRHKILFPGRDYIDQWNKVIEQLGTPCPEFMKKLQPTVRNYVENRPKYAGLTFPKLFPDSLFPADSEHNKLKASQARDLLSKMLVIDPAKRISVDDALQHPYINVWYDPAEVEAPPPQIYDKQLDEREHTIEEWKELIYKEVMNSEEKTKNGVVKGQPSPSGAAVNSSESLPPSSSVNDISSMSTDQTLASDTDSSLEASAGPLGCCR
Chain of HIPK2 (human) (Q9H2X6 whole entry, looked up): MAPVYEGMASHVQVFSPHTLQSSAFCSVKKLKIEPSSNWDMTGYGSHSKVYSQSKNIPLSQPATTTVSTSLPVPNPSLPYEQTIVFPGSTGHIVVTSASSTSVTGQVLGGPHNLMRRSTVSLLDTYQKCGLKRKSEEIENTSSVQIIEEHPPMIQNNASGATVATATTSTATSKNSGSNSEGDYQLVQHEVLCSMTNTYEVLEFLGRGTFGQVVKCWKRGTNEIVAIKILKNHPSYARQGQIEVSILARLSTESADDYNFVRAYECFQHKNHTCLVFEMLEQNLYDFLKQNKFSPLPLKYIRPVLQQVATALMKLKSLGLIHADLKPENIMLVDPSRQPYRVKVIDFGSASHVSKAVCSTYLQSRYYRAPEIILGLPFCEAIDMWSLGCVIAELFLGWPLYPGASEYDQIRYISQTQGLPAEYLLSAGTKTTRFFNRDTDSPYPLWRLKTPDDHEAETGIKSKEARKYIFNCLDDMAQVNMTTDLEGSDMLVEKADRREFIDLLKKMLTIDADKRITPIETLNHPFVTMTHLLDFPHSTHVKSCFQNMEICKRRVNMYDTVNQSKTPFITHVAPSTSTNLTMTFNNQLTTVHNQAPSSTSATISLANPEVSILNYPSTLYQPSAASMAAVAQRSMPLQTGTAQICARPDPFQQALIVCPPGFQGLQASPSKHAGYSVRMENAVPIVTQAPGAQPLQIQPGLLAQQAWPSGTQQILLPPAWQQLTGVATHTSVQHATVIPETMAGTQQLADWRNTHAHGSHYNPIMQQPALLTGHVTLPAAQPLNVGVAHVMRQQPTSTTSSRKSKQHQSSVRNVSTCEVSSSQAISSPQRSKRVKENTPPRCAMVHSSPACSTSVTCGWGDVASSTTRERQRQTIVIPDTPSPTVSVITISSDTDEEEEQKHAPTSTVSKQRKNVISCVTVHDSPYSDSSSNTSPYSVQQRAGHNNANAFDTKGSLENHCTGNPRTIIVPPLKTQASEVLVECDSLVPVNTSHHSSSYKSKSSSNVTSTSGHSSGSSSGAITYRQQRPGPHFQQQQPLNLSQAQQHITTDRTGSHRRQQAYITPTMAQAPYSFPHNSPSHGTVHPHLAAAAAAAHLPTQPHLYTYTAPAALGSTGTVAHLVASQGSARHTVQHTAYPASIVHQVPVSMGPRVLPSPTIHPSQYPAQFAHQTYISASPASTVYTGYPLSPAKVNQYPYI

**Q.** `CC(C)(C#N)c1ccc(N2C(=O)OCc3cnc4ccc(-c5cnc6ccccc6c5)cc4c32)cc1` was tested. Which residual activity ([1]; compound 10.0 µM) did it give?
**A.** 100%

**Q.** What about the residual activity (AURKA (human); compound 1.0 µM) of the same compound?
**A.** 101%

**Q.** And the residual activity (AURKA (human); compound 10.0 µM)?
**A.** 108%

**Q.** What about the residual activity (AURKB (human); compound 1.0 µM) of the same compound?
**A.** 93%

**Q.** And the residual activity (AURKB (human); compound 10.0 µM)?
**A.** 82%

**Q.** And the residual activity (CHEK1 (human); compound 1.0 µM)?
**A.** 81%

**Q.** What about the residual activity (CHEK1 (human); compound 10.0 µM) of the same compound?
**A.** 100%

**Q.** And the residual activity (CSNK1D (human); compound 1.0 µM)?
**A.** 92%

**Q.** And the residual activity (CSNK1D (human); compound 10.0 µM)?
**A.** 95%

**Q.** What about the residual activity (EEF2K (human); compound 1.0 µM) of the same compound?
**A.** 99%

**Q.** What about the residual activity (EEF2K (human); compound 10.0 µM) of the same compound?
**A.** 109%

**Q.** And the residual activity (EPHB1 (human); compound 1.0 µM)?
**A.** 93%

**Q.** And the residual activity (EPHB1 (human); compound 10.0 µM)?
**A.** 119%

**Q.** And the residual activity (EPHB4 (human); compound 1.0 µM)?
**A.** 102%

**Q.** What about the residual activity (EPHB4 (human); compound 10.0 µM) of the same compound?
**A.** 96%

**Q.** What about the residual activity (FGFR1 (human); compound 1.0 µM) of the same compound?
**A.** 98%

**Q.** What about the residual activity (FGFR1 (human); compound 10.0 µM) of the same compound?
**A.** 93%

**Q.** What about the residual activity (FLT1 (human); compound 1.0 µM) of the same compound?
**A.** 87%

**Q.** And the residual activity (FLT1 (human); compound 10.0 µM)?
**A.** 107%

**Q.** And the residual activity (GCK (human); compound 1.0 µM)?
**A.** 22%

**Q.** What about the residual activity (GCK (human); compound 10.0 µM) of the same compound?
**A.** 11%

**Q.** What about the residual activity (GSK3B (human); compound 1.0 µM) of the same compound?
**A.** 74%

**Q.** What about the residual activity (GSK3B (human); compound 10.0 µM) of the same compound?
**A.** 89%

**Q.** What about the residual activity (HIPK1 (human); compound 1.0 µM) of the same compound?
**A.** 94%

**Q.** And the residual activity (HIPK1 (human); compound 10.0 µM)?
**A.** 97%

**Q.** What about the residual activity (HIPK2 (human); compound 1.0 µM) of the same compound?
**A.** 99%

**Q.** And the residual activity (HIPK2 (human); compound 10.0 µM)?
**A.** 114%

**Q.** What about the residual activity (IGF1R (human); compound 1.0 µM) of the same compound?
**A.** 89%

**Q.** And the residual activity (IGF1R (human); compound 10.0 µM)?
**A.** 67%

**Q.** And the residual activity (MAP2K2 (human); compound 1.0 µM)?
**A.** 87%

**Q.** And the residual activity (MAP2K2 (human); compound 10.0 µM)?
**A.** 75%

**Q.** What about the residual activity (MAP3K1 (human); compound 1.0 µM) of the same compound?
**A.** 69%

**Q.** And the residual activity (MAP3K1 (human); compound 10.0 µM)?
**A.** 85%

**Q.** What about the residual activity (MAP3K5 (human); compound 1.0 µM) of the same compound?
**A.** 117%

**Q.** And the residual activity (MAP3K5 (human); compound 10.0 µM)?
**A.** 111%

**Q.** What about the residual activity (MAP3K9 (human); compound 1.0 µM) of the same compound?
**A.** 91%

**Q.** What about the residual activity (MAP3K9 (human); compound 10.0 µM) of the same compound?
**A.** 89%

**Q.** And the residual activity (MAPK1 (human); compound 1.0 µM)?
**A.** 83%

**Q.** And the residual activity (MAPK1 (human); compound 10.0 µM)?
**A.** 95%

**Q.** And the residual activity (MAPK10 (human); compound 1.0 µM)?
**A.** 87%

**Q.** What about the residual activity (MAPK10 (human); compound 10.0 µM) of the same compound?
**A.** 77%

**Q.** What about the residual activity (MAPK13 (human); compound 1.0 µM) of the same compound?
**A.** 96%

**Q.** What about the residual activity (MAPK13 (human); compound 10.0 µM) of the same compound?
**A.** 95%

**Q.** What about the residual activity (MAPK9 (human); compound 10.0 µM) of the same compound?
**A.** 97%

**Q.** And the residual activity (MARK4 (human); compound 1.0 µM)?
**A.** 100%

**Q.** What about the residual activity (MARK4 (human); compound 10.0 µM) of the same compound?
**A.** 86%

**Q.** And the residual activity (MELK (human); compound 1.0 µM)?
**A.** 49%

**Q.** What about the residual activity (MELK (human); compound 10.0 µM) of the same compound?
**A.** 49%

**Q.** What about the residual activity (MYLK (human); compound 1.0 µM) of the same compound?
**A.** 87%

**Q.** And the residual activity (MYLK (human); compound 10.0 µM)?
**A.** 100%

**Q.** What about the residual activity ([2]; compound 1.0 µM) of the same compound?
**A.** 95%

**Q.** What about the residual activity ([2]; compound 10.0 µM) of the same compound?
**A.** 107%

**Q.** And the residual activity (PAK6 (human); compound 1.0 µM)?
**A.** 98%

**Q.** And the residual activity (PAK6 (human); compound 10.0 µM)?
**A.** 110%

**Q.** What about the residual activity (PKN2 (human); compound 1.0 µM) of the same compound?
**A.** 90%

**Q.** And the residual activity (PKN2 (human); compound 10.0 µM)?
**A.** 84%

**Q.** And the residual activity (SRC (human); compound 1.0 µM)?
**A.** 83%

**Q.** What about the residual activity (SRC (human); compound 10.0 µM) of the same compound?
**A.** 130%

**Q.** And the residual activity ([3]; compound 1.0 µM)?
**A.** 87%

**Q.** And the residual activity ([3]; compound 10.0 µM)?
**A.** 85%

**Q.** And the residual activity (SYK (human); compound 1.0 µM)?
**A.** 105%

**Q.** And the residual activity (SYK (human); compound 10.0 µM)?
**A.** 76%

**Q.** And the residual activity (TAOK1 (human); compound 1.0 µM)?
**A.** 91%

**Q.** What about the residual activity (TAOK1 (human); compound 10.0 µM) of the same compound?
**A.** 94%

**Q.** What about the residual activity (TTK (human); compound 1.0 µM) of the same compound?
**A.** 91%

**Q.** What about the residual activity (TTK (human); compound 10.0 µM) of the same compound?
**A.** 86%

**Q.** And the residual activity (YES1 (human); compound 1.0 µM)?
**A.** 92%

**Q.** What about the residual activity (YES1 (human); compound 10.0 µM) of the same compound?
**A.** 93%

**Q.** `Cc1cc(N=Nc2cc(S(=O)(=O)O)c(C)cc2C)c(N)cc1O` was tested. Which residual activity ([1]; compound 100.0 µM) did it give?
**A.** 37%

**Q.** What about the residual activity (AURKA (human); compound 100.0 µM) of the same compound?
**A.** 32%

**Q.** And the residual activity (AURKB (human); compound 100.0 µM)?
**A.** 93%

**Q.** What about the residual activity (CHEK1 (human); compound 100.0 µM) of the same compound?
**A.** 196%

**Q.** And the residual activity (EEF2K (human); compound 100.0 µM)?
**A.** 92%

**Q.** And the residual activity (EPHB1 (human); compound 100.0 µM)?
**A.** 97%

**Q.** And the residual activity (EPHB4 (human); compound 100.0 µM)?
**A.** 123%

**Q.** What about the residual activity (FGFR1 (human); compound 100.0 µM) of the same compound?
**A.** 59%

**Q.** And the residual activity (FLT1 (human); compound 100.0 µM)?
**A.** 62%

**Q.** And the residual activity (GCK (human); compound 100.0 µM)?
**A.** 80%

**Q.** And the residual activity (GSK3B (human); compound 100.0 µM)?
**A.** 31%

**Q.** What about the residual activity (HIPK1 (human); compound 100.0 µM) of the same compound?
**A.** 94%

**Q.** And the residual activity (HIPK2 (human); compound 100.0 µM)?
**A.** 42%

**Q.** And the residual activity (IGF1R (human); compound 100.0 µM)?
**A.** 109%

**Q.** And the residual activity (MAP2K2 (human); compound 100.0 µM)?
**A.** 109%

**Q.** What about the residual activity (MAP3K1 (human); compound 100.0 µM) of the same compound?
**A.** 88%

**Q.** What about the residual activity (MAP3K5 (human); compound 100.0 µM) of the same compound?
**A.** 151%

**Q.** And the residual activity (MAP3K9 (human); compound 100.0 µM)?
**A.** 58%

**Q.** What about the residual activity (MAPK1 (human); compound 100.0 µM) of the same compound?
**A.** 134%

**Q.** What about the residual activity (MAPK10 (human); compound 100.0 µM) of the same compound?
**A.** 100%

**Q.** And the residual activity (MAPK13 (human); compound 100.0 µM)?
**A.** 109%

**Q.** And the residual activity (MAPK9 (human); compound 100.0 µM)?
**A.** 112%

**Q.** And the residual activity (MARK4 (human); compound 100.0 µM)?
**A.** 81%

**Q.** What about the residual activity (MELK (human); compound 100.0 µM) of the same compound?
**A.** 87%

**Q.** And the residual activity (MYLK (human); compound 100.0 µM)?
**A.** 97%

**Q.** And the residual activity ([2]; compound 100.0 µM)?
**A.** 100%

**Q.** What about the residual activity (PAK6 (human); compound 100.0 µM) of the same compound?
**A.** 96%

**Q.** What about the residual activity (PKN2 (human); compound 100.0 µM) of the same compound?
**A.** 126%

**Q.** And the residual activity (PRKCZ (human))?
**A.** 97%

**Q.** And the residual activity (SRC (human); compound 100.0 µM)?
**A.** 40%

**Q.** What about the residual activity ([3]; compound 100.0 µM) of the same compound?
**A.** 126%

**Q.** And the residual activity (SYK (human); compound 100.0 µM)?
**A.** 103%

**Q.** What about the residual activity (TAOK1 (human); compound 100.0 µM) of the same compound?
**A.** 109%

**Q.** And the residual activity (TTK (human); compound 100.0 µM)?
**A.** 90%

**Q.** And the residual activity (YES1 (human); compound 100.0 µM)?
**A.** 52%
